# Measurements from patent US7714014B2, “Targeting GLI proteins in human cancer by small molecules” (The Regents of the University of California, priority 2005, dated 2010).
# What was measured:
# [1] = tested on: cytosolic β-catenin in human normal skin fibroblasts (Malme-3); test: Western blot of cytosolic β-catenin; assay type: cell-based; settings: 10 μM or 20 μM
# Experimental: […] Protein concentrations were measured using Bio-Rad Protein Assay reagent. Whole cell lysate protein (5-20 ug) were boiled for 5 min and separated by 10-20% SDS-PAGE. Proteins were transferred to an Immobilon-P membrane (Millipore Corp., Bedford, Mass.) using semi-dry transfer cell (Bio-Rad; Benicia, Calif.). The membranes were blocked with 5% nonfat milk powder and 0.1% Tween 20 in Tris-buffer saline overnight at 4° C. and then incubated with primary antibody for 1 h at room temperature. Membranes were washed in 5% nonfat milk powder and 0.1% Tween 20 in Tris-buffer saline for three 10-min periods. Horseradish peroxidase-conjugated goat anti-rabbit or donkey anti-mouse antibodies were used as secondary antibodies. Proteins were visualized with chemiluminescence luminol reagents (Santa Cruz Bio-technology). Anti-Dvl-3, and anti-Survivin, antibodies were from Santa Cruz Biotechnology (Santa Cruz, Calif.). Anti-Caspase3 antibody was from Oncogene (Cambridge, Mass.). Anti-β-Actin antibody was from Sigrna-Aldrich Corp. (St. Louis, Mo.). Anti-β-catenin antibody was from Transduction Laboratories (Lexington, Ky.). Anti-Cytochrome c antibody was from BD Biosciences (San Diego, Calif.). For detecting alteration of β-catenin cytosolic extracts were prepared and examined as described previously in the publications from our lab. […]
# [2] = Body weight of mice after in vivo treatment; parameters: species or system mouse; settings: three weeks after tumor inoculation and treatment
# Experimental: As one preliminary in vivo toxicity study of FN1-8, it was examined if there was loss of body weight in the mice after the FN1-8 treatment. Three weeks after the initial tumor inoculation and the treatment as described in the previous examples, body weights of DMSO control group (n=11) and FN1-8 treated group (n=8) were measured using a scale.
smiles,measurement,setting,value
"O=C(NCCc1ccc(O)cc1)C1C(c2ccccc2)=NN(c2ccccc2)C1c1ccccc1 (centres unmarked) [FN1-8, N-(2-(4-Hydroxyphenyl)ethyl)-1,3,5-triphenyl-4,5-dihydro-pyrazole-4-carboxyamide]",cytosolic β-catenin level,[1],no noticeable change
same,loss of body weight,[2],No noticeable loss of the body weight
